From patent US7439077B2, “Coumarin analog compounds for safer anticoagulant treatment” (New Century Pharmaceuticals, Inc., priority 2002, dated 2008)
Several values for one entry are separate records, joined by “and”; a condition that tells them apart may be missing. Equal entries are not always repeated. Where two headings read alike, the source gives them in different places.

Columns and labels:
[1] = biological target: T1, HSA Fragment (Homo sapiens, UniProt P02768, form not given); experiment: BIACORE binding to HSA Fragment; settings: human, HSA fragment, Protein: HSA Fragment; read-out: KD2
T1 construct: HSA Fragment
Description: (§1) In the following examples, Biacore and Animal Study data were obtained with regard to some of the compounds of the present invention, namely NCP 014, 023, 023a.

[2] = biological target: T2, HSA Fragment (Homo sapiens, UniProt P02768); experiment: BIACORE binding to HSA Fragment; settings: Protein: HSA Fragment; number of binding sites
T2 construct: HSA Fragment
Description: as §1

[3] = biological target: HSA (Homo sapiens, UniProt P02768); experiment: BIACORE binding to HSA; settings: Protein: HSA; for Binding Sites: number of binding sites
Description: as §1

[4] = biological target: Rat Albumin (Rattus norvegicus, UniProt P02770); experiment: BIACORE binding to Rat Albumin; settings: Protein: Rat Albumin; for Binding Sites: number of binding sites; for Kd: read-out: KD1
Description: as §1

[5] = biological target: human serum albumin (Homo sapiens, UniProt P02768); experiment: Crystallographic determination of albumin binding site; settings: serum albumin binding region observed
Sequence of human serum albumin (P02768 25-609): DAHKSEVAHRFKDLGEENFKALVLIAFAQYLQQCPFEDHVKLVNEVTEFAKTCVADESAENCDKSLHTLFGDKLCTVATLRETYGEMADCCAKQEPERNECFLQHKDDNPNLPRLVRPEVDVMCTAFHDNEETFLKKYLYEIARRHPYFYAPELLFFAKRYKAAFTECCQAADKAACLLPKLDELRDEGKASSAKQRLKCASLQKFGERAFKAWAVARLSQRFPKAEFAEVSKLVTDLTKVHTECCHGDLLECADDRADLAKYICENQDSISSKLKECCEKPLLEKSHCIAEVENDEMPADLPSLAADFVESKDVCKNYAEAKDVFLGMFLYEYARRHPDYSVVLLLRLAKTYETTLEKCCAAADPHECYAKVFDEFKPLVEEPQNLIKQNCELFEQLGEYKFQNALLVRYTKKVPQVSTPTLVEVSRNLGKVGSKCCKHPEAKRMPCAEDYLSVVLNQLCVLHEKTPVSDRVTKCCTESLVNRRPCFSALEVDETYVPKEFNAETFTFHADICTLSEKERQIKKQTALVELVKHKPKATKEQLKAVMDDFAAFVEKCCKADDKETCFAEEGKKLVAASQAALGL

T1 sequence (P02768 whole entry, the tested form may be a part): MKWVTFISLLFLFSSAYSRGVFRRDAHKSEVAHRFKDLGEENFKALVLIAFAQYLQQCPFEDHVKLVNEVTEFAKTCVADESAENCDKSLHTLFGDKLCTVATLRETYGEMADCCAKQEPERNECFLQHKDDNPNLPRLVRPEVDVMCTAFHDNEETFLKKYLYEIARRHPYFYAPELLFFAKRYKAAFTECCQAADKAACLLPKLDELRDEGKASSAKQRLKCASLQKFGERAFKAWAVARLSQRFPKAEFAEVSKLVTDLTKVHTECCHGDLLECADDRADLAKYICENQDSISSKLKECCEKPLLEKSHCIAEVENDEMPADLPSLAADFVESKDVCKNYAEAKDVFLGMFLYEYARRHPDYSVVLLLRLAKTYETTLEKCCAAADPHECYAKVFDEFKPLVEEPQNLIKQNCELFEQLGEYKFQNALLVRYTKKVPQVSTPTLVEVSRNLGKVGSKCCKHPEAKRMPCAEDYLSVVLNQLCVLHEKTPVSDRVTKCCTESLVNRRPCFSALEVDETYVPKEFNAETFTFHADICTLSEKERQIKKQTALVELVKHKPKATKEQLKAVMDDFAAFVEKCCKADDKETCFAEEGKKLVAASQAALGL
Sequence of Rat Albumin (P02770 25-608): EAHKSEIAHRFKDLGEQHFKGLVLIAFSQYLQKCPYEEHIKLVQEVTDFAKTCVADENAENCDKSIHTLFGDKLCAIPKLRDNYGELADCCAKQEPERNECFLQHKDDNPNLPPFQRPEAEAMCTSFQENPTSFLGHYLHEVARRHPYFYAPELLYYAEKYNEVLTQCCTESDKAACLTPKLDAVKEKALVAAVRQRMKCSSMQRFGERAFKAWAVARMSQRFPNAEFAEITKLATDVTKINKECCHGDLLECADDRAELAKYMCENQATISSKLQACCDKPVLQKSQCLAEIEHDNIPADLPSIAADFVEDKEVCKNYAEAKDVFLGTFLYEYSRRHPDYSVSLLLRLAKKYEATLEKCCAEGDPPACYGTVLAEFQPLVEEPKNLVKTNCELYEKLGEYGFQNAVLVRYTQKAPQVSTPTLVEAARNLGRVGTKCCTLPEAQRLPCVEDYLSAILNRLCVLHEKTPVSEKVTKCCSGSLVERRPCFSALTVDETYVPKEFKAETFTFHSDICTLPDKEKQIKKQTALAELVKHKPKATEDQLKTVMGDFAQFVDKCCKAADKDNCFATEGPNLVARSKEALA
Sequence of HSA (P02768 25-609): as the sequence (P02768 25-609) above
T2 sequence (P02768 whole entry, the tested form may be a part): as the sequence (P02768 whole entry, the tested form may be a part) above

What does the source list for `CCCCCCCCC(CC(C)=O)c1c(O)c2ccccc2oc1=O` (stereo not shown) [NCP 014]?
Kd [1]: 97 µM; Binding Sites [2]: 2 and 1; Binding Sites [3]: 2 and 1; Kd ([3]; read-out: KD1): 0.7 µM and 0.8 µM and 4.6 µM and 6.5 µM; Kd ([3]; human, HSA (human serum albumin), read-out: KD2): 130 µM; Binding Sites [4]: 2; Kd [4]: 4.6 µM; albumin binding site (location) [5]: bind at the IB binding site, and in addition in the IIA binding site, but at a location different than the major site wherein sodium warfarin binds to albumin

With `CC(=O)CC(Cc1ccccc1)c1c(O)c2ccccc2oc1=O` (stereo not shown) [NCP 023] as the compound, how does the Kd [1] read?
Its Kd is 220 µM.

What about the “Binding Sites” value [3] of the same compound?
Its value is 2 and 1.

What about the Kd ([3]; read-out: KD2) of the same compound?
The Kd was 112 µM and 160 µM.

What about the Kd [4] of the same compound?
Its Kd is 85 µM.

What about the “albumin binding site (location)” value [5] of the same compound?
The value was “bind at the IB site of serum albumin unique from the IB endogenous long-chain fatty acid site”.

How did the Kd [1] turn out when `CC(=O)CC(Cc1ccc(Cl)cc1)c1c(O)c2ccccc2oc1=O` (stereo not shown) [NCP 023a] was run?
The Kd was 50 µM.

What about the “Binding Sites” value [3] of the same compound?
The value was 1 and 2.

And the Kd ([3]; read-out: KD2)?
Its Kd is 40 µM.

And the “Binding Sites” value [4]?
Its value is 2.

And the Kd [4]?
Its Kd is 11.8 µM.

What about the “albumin binding site (location)” value [5] of the same compound?
Its value is “bind at the IB site of serum albumin unique from the IB endogenous long-chain fatty acid site”.
